Each structure is given as a SMILES string.

What all share (assay): Kinase panel enzymatic inhibition assay (Nanosyn)
Assay type in all cases: biochemical
Holding throughout (details): compound 5 μM; ATP at Km; 30-minute pre-incubation

Experiment [1] deals with T1, Abl1 (Homo sapiens, UniProt P00519).
T1 construct: purchased Nanosyn (contract screening)
Put shortly:
(§1)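 Inhibition is expressed as percent at 5 μM or as IC50, with ATP set at the Km of each kinase and a 30-minute compound pre-incubation. Detection used an accepted enzymatic format such as Caliper mobility shift.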

The target in experiment [2] is T2, BLK (Homo sapiens, UniProt P51451).
T2 construct: purchased Nanosyn (contract screening)
Summed up: as §1

Experiment [3] deals with T3, COT1 (Homo sapiens, UniProt P41279).
T3 construct: purchased Nanosyn (contract screening)
Summed up: as §1

In experiment [4] the target is T4, CRAF (Homo sapiens, UniProt P04049).
T4 construct: purchased Nanosyn (contract screening)
Summed up:
as §1

The target of experiment [5] is T5, ERBB4 (Homo sapiens, UniProt Q15303).
T5 construct: purchased Nanosyn (contract screening)
T5 sequence (Q15303 26-1308): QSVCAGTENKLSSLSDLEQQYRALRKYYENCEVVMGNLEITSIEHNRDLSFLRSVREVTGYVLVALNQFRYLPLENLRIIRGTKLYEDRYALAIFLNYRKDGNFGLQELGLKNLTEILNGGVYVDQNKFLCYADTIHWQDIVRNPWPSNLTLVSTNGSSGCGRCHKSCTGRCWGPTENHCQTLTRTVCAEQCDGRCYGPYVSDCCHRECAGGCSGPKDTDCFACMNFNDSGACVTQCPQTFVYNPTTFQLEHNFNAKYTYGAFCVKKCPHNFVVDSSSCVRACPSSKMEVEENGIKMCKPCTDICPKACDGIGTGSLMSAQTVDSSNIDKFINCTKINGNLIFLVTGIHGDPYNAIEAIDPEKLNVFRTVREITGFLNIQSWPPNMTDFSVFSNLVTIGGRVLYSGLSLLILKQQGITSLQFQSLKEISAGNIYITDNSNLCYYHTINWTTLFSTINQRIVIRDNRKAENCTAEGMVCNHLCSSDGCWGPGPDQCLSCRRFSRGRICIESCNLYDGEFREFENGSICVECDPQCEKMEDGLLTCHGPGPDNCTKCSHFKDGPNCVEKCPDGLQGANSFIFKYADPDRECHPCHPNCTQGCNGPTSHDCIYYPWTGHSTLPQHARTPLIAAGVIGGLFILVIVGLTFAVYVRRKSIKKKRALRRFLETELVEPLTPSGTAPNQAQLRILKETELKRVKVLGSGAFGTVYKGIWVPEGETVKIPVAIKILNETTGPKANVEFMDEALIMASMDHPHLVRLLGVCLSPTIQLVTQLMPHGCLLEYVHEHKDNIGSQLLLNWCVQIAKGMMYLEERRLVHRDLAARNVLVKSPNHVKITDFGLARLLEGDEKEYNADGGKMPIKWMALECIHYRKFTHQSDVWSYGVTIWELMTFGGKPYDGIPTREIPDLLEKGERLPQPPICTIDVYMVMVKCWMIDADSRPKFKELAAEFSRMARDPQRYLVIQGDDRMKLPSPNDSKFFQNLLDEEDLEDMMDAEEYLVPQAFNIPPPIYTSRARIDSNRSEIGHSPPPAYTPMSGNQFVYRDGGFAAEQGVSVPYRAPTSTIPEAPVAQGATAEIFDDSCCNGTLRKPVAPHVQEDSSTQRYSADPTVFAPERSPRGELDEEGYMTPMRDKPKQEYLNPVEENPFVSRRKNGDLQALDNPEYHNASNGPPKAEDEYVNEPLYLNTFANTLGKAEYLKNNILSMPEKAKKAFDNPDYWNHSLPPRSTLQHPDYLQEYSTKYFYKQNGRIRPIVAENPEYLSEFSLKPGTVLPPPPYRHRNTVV
Summed up: as §1

Experiment [6] concerns the target T6, FYN (Homo sapiens, UniProt P06241).
T6 construct: purchased Nanosyn (contract screening)
Put shortly: as §1

Experiment [7] concerns the target T7, LYNa (Homo sapiens, UniProt P07948).
T7 construct: purchased Nanosyn (contract screening)
Put shortly:
as §1

For experiment [8], the target named is T8, LYNb (Homo sapiens, UniProt P07948).
T8 construct: purchased Nanosyn (contract screening)
Summed up:
as §1

The target of experiment [9] is T9, PDGFRa (Homo sapiens, UniProt P16234).
T9 construct: Nanosyn (contract laboratory that ran the panel)
T9 sequence (P16234 24-1089): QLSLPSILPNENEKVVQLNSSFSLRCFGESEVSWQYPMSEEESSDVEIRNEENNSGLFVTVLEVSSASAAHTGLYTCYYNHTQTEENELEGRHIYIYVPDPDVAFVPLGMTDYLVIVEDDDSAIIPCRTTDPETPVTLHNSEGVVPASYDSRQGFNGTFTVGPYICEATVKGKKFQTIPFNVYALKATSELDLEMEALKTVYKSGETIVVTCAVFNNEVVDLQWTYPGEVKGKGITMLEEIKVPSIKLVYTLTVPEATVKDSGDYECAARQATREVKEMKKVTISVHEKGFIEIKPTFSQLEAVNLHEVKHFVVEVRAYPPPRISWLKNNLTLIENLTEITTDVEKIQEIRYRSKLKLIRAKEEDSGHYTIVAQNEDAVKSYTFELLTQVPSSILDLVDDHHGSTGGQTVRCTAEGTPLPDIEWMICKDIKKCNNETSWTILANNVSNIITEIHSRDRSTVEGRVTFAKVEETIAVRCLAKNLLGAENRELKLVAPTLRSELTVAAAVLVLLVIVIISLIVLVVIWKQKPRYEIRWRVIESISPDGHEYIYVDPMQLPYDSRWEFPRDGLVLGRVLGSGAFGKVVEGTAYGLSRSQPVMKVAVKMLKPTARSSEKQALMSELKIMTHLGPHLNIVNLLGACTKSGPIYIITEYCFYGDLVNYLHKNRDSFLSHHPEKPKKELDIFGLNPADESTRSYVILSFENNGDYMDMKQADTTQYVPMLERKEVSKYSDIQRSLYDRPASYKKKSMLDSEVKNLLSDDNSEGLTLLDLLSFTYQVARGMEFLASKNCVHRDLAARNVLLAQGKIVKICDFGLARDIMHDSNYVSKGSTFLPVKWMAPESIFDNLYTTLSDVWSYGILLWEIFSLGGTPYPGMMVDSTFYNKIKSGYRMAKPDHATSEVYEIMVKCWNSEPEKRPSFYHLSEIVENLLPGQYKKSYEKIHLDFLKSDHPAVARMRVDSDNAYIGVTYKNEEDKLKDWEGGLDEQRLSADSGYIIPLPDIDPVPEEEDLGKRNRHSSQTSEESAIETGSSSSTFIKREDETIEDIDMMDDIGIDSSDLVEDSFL
Summed up: as §1

Experiment [10] addresses T10, PDGFRb (Homo sapiens, UniProt P09619).
T10 construct: Nanosyn (contract laboratory that ran the panel)
Summed up:
as §1

Experiment [11] deals with T11, PIKfyve (Homo sapiens, UniProt Q9Y2I7).
T11 construct: Nanosyn (contract laboratory that ran the panel)
Summed up:
as §1

The target of experiment [12] is T12, RET (Homo sapiens, UniProt P07949).
T12 construct: Nanosyn (contract laboratory that ran the panel)
T12 sequence (P07949 29-1114): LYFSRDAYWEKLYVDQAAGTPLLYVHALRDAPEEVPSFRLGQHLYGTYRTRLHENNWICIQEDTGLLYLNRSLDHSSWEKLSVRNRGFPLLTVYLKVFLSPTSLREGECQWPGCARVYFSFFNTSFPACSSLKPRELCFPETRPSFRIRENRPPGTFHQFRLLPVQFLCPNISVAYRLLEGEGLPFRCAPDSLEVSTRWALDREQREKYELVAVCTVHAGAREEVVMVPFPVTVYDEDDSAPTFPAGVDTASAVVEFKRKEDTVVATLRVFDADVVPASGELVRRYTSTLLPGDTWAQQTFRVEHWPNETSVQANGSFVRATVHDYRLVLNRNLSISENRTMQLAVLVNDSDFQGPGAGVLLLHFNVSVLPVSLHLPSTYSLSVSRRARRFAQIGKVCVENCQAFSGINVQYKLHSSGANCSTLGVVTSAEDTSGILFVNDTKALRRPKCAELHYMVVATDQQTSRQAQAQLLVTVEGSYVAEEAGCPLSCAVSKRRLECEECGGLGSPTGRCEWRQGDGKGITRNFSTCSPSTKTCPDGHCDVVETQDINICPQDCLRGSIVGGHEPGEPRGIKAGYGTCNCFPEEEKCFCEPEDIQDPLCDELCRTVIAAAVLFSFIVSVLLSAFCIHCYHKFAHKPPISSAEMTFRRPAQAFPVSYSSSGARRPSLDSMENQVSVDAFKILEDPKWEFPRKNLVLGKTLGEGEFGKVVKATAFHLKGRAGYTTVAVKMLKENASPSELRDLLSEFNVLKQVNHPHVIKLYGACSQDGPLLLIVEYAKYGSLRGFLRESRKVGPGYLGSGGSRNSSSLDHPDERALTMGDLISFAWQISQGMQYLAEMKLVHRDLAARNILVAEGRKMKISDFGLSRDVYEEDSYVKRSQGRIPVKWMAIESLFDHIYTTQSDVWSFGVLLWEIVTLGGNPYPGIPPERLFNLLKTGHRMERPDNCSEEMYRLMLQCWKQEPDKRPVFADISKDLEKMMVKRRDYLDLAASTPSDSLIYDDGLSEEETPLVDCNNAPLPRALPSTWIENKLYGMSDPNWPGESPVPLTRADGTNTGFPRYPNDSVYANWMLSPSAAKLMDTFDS
Put shortly: as §1

In experiment [13] the target is T13, SGK2 (Homo sapiens, UniProt Q9HBY8).
T13 construct: Nanosyn (contract laboratory that ran the panel)
T13 sequence (Q9HBY8 1-367): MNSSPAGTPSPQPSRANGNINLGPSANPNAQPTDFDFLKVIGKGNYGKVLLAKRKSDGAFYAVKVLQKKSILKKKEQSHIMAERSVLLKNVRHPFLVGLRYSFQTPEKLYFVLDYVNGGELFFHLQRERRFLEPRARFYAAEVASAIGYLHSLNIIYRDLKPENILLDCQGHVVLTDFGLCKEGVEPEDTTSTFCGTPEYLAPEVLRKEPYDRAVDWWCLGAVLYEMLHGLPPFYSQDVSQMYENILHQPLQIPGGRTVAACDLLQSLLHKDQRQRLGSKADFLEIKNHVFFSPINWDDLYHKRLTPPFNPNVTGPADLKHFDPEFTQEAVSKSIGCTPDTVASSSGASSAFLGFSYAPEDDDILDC
Put shortly:
as §1

In experiment [14] the target is T14, SGK3 (Homo sapiens, UniProt Q96BR1).
T14 construct: Nanosyn (contract laboratory that ran the panel)
T14 sequence (Q96BR1 1-496): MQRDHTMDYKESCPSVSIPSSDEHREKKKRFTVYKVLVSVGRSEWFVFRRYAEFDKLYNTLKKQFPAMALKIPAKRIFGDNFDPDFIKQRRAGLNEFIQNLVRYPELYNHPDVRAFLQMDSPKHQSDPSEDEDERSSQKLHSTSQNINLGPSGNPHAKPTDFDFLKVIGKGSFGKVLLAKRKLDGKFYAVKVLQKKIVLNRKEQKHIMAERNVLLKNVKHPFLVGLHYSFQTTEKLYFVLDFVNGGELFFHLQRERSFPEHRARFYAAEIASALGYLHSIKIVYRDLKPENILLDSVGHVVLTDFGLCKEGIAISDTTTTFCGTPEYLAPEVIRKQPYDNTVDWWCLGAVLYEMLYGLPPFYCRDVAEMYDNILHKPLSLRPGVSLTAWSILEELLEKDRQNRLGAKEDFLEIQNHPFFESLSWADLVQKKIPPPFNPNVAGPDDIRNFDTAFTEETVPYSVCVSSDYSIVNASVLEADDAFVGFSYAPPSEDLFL
Put shortly:
as §1

The target of experiment [15] is T15, SPHK2 (Homo sapiens, UniProt Q9NRA0).
T15 construct: Nanosyn (contract laboratory that ran the panel)
T15 sequence (Q9NRA0 1-654): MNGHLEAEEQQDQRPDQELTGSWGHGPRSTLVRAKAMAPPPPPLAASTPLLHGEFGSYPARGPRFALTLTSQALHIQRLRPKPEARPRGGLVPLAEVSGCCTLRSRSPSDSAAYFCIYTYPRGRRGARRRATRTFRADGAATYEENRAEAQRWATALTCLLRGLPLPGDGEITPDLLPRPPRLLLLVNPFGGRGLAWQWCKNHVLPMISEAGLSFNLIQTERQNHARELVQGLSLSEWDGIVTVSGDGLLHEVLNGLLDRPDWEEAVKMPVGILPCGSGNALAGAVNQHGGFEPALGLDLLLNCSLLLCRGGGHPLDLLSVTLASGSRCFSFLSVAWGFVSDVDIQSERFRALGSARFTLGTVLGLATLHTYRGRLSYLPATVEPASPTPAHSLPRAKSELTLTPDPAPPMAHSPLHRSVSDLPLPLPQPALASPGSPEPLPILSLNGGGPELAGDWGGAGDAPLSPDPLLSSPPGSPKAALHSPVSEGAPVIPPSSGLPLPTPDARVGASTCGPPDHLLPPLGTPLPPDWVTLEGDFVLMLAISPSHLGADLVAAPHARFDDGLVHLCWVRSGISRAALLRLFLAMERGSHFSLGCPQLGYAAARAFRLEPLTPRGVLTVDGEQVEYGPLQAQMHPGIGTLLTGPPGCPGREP
Summed up:
as §1

In experiment [16] the target is T16, ZAK (Homo sapiens, UniProt Q9NYL2).
T16 construct: Nanosyn (contract laboratory that ran the panel)
T16 sequence (Q9NYL2 whole entry): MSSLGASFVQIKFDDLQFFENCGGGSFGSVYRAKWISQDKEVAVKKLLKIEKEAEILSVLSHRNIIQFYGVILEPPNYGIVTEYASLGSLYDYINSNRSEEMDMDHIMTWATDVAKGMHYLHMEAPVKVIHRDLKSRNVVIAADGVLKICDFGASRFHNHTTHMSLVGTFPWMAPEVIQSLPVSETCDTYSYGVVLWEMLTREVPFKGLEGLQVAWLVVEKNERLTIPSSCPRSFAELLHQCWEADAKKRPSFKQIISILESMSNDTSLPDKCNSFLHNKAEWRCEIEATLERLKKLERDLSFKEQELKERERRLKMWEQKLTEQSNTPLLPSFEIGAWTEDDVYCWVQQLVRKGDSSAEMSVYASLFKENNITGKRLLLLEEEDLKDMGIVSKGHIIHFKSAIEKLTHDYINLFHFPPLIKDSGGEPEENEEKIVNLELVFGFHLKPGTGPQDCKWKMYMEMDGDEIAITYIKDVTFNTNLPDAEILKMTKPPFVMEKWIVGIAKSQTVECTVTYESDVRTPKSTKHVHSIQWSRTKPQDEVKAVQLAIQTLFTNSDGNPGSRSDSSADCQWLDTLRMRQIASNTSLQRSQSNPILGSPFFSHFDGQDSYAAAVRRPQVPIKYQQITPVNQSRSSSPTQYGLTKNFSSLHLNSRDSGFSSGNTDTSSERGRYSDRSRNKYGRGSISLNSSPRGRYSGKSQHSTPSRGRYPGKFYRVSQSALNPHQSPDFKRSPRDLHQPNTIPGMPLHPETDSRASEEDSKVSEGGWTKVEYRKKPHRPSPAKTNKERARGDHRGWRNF
Put shortly:
as §1

In experiment [17] the target is T17, p38a (Homo sapiens, UniProt Q16539).
T17 construct: Nanosyn (contract laboratory that ran the panel)
Summed up:
as §1

T7 sequence (P07948 whole entry): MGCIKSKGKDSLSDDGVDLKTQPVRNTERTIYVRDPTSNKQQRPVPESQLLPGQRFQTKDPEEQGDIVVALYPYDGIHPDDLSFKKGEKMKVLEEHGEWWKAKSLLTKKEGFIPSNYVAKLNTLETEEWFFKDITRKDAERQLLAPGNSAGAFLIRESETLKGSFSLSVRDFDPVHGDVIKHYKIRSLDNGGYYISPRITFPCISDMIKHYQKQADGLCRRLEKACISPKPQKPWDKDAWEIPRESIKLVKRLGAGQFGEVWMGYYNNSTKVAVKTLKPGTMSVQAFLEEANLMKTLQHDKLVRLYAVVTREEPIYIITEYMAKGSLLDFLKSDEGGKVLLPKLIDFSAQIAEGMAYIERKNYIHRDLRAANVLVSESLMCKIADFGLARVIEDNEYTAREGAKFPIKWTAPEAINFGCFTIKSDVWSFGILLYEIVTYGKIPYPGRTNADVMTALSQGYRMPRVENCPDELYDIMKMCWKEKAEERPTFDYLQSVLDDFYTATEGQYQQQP

For the molecule `Cc1ccc(NC(=O)c2cc(S(C)(=O)=O)n(-c3ccc(F)cc3)n2)cc1Nc1nccc(-c2cccnc2N)n1` [Ex13, N-(3-((4-(2-aminopyridin-3-yl)pyrimidin-2-yl)amino)-4-methylphenyl)-1-(4-fluorophenyl)-5-(methylsulfonyl)-1H-pyrazole-3-carboxamide], the inhibition at 5 µM in [1] was at least 95%; in experiment [2], under 79%; in experiment [3] it was under 79%; in experiment [4] it was under 79%; in [5], 80 to 89%; in experiment [6], under 79%. Moreover, the inhibition at 5 µM in [7] was at least 95%; in experiment [8], at least 95%; in [9] it was at least 95%; in [10], at least 95%; in experiment [11], under 79%; in experiment [12], under 79%. In addition, the inhibition at 5 µM in experiment [13] is under 79%; in experiment [14], under 79%; in experiment [15], 80 to 89%; in experiment [16], under 79%; in [17], under 79%.

As for `Cc1ccc(NC(=O)c2cc([S+](C)[O-])n(-c3ccc(F)cc3)n2)cc1Nc1ccc2ncn(C)c(=O)c2c1` (stereo not drawn) [Ex5, 1-(4-fluorophenyl)-N-(4-methyl-3-((3-methyl-4-oxo-3,4-dihydroquinazolin-6-yl)amino)phenyl)-5-(methylsulfinyl)-1H-pyrazole-3-carboxamide], the inhibition at 5 µM was under 79% in experiment [1]; under 79% in experiment [2]; under 79% in experiment [3]; at least 95% in experiment [4]; under 79% in experiment [5]; under 79% in experiment [6]. In addition, the inhibition at 5 µM was at least 95% in [7]; 90 to 94% in experiment [8]; under 79% in experiment [9]; under 79% in experiment [10]; under 79% in experiment [11]; under 79% in [12]. Moreover, the inhibition at 5 µM in experiment [13] is under 79%; in [14], under 79%; in experiment [15], under 79%; in experiment [16], under 79%; in experiment [17] it was at least 95%.

As for `Cc1ccc(NC(=O)c2cc(S(C)(=O)=O)n(-c3ccc(F)cc3)n2)cc1C#Cc1cnc2cccnn12` [Ex14, 1-(4-fluorophenyl)-N-(3-(imidazo[1,2-b]pyridazin-3-ylethynyl)-4-methylphenyl)-5-(methylsulfonyl)-1H-pyrazole-3-carboxamide], the inhibition at 5 µM was under 79% in experiment [1]; 80 to 89% in experiment [2]; under 79% in [3]; at least 95% in experiment [4]; under 79% in [5]; 90 to 94% in experiment [6]. The inhibition at 5 µM was at least 95% in experiment [7]; at least 95% in experiment [8]; under 79% in experiment [9]; 90 to 94% in experiment [10]; 80 to 89% in experiment [11]; 80 to 89% in experiment [12]. Moreover, the inhibition at 5 µM in [13] is under 79%; in experiment [14], under 79%; in [15] it was under 79%; in experiment [16], 80 to 89%; in [17], under 79%.

(Values after patent US20240400577A1, “MODULATORS OF PROTEIN KINASES” (VIBLIOME THERAPEUTICS, LLC, priority 2021, published 2024).)
